{"source": "patent US9034848B2", "about": "“Phenyl carbamate compounds for use in preventing or treating stroke” (Bio-Pharm Solutions Co., Ltd., priority 2011, dated 2015)", "format_in_all_cases": "in vivo", "key": {"mice": {"system": "mice", "experiment": "MES test (anti-excitotoxicity activity)", "conditions": "Mus musculus, po, 4 mice, read-out: MES test(po) Protection %; for responders at 100 mg/kg: injection amount 100 mg/kg"}, "SD rats [1]": {"system": "SD rats", "experiment": "Permanent middle cerebral artery occlusion (pMCAO) model, TTC-stained infarct area", "conditions": "60 mg/kg i.p. b.i.d.; for infraction areas compared with control (neuro-therapeutic): 1st inj. 0.25 hr after occlusion, 8 hr interval, occlusion 1, 3, 7 days"}, "SD rats [2]": {"system": "SD rats", "experiment": "Transient middle cerebral artery occlusion (tMCAO) model, TTC-stained infarct area", "conditions": "2 hr occlusion, 24 hr reperfusion; for infraction areas compared with control (neuro-therapeutic): 60 mg/kg i.p. 15 minutes after occlusion; for infraction areas compared with control (neuro-prevention): 60 mg/kg i.p. 15 minutes before occlusion", "method": "1.1. Neuro-Prevention Study of Transient MCAO (tMCAO) Model\nMale, SD rats weighing 290-300 g were purchased from Nara Bio Tech. (Pyoung-tek, Korea) Animals were maintained with laboratory animal food and water ad libitum in an animal facility with a 12 h light/dark cycle at a controlled temperature (23±2° C.) until used. All animal experiments were carried out in accordance with the Korean Academy of Medical Sciences Guide for Care and Use of Laboratory Animals.\nThe rats were anesthetized with isoflurane (Hana-phram., Korea) and anesthesia machine was set to 1.0 L/min N2O (Surgi-Vet, USA). Isoflurane and N2O gas ratio was 3:3 for induction anesthesia, and lower to 2:1 (isoflurane:N2O) to maintain anesthesia. Body temperature was monitored continuously by a rectal thermo meter probe and maintained at 37±0.5° C. by placing the animals on a heating pad (Jung-do B&P, Korea). The MCA (middle cerebral artery) occlusion was induced by the procedure of Longa et al. (1989) with minor modifications. Briefly, surgical nylon suture thread (4-0, Diameter: 0.39 mm, Coating length: 0.56 mm, Doccol suture, USA) with a round tip was advanced from the external carotid artery (ECA) into the lumen of the internal carotid artery (ICA) to occlude the origin of the MCA. The wound was closed, and the animals were allowed to home cage for recover.\nPriority, the infraction areas when the compound of Example 1 was treated at various time points were measured for peak time when is the best efficacy time (see FIG. 1). And then, rats received 60 mg/kg dose of each compound of Examples 1, 65 and 67, intraperitoneally (i.p.) at 15 minutes before MCA occlusion (see FIG. 2, animal numbers of each compound of Examples 1 (n=8), 65 (n=5) and 67 (n=6)). All compounds were dissolved in 30% polyethylene glycol (Compound of Example 1) or 20% (w/v) Tween 80 (Compounds of Examples 65 and 67) once in volume of 4 ul/g bw. Control group (n=33) was identical to those in the MCA occlusion rats except for injection of vehicle (4 ul/g bw of 30% (w/v) polyethylene glycol or 20% (w/v) Tween 80, intraperitoneally (i.p.)). Two hours after MCA occlusion, reperfusion was accomplished by pulling the suture thread back to the bifurcation until the tip cleared the ICA.\nThe experimentation was identical performed as described in Experimental Example 1.1, except that each compound examples of 1, 65 and 67 was administered at 15 minutes after MCA occlusion (FIG. 3, animal numbers of each compound of Examples 1 (n=7), 65 (n=6) and 67 (n=5)), to test the therapeutic effect of the compounds. Control group (n=33) was identical to those in the MCA occlusion rats except for injection of vehicle (4 ul/g bw of 30% polyethylene glycol or 20% Tween 80, intraperitoneally (i.p.)).\nAfter 24 hours of reperfusion, rats were anesthetized with isoflurane (Hana-phram., Korea). The brain was then quickly removed and cut into 2-mm thick coronal block slices in brain matrix. The slices were immersed in a 2% (w/v) solution of 2,3,5-triphenyltetrazolium chloride (TTC) in normal saline at 37° C. for 10 min and then fixed in 10% (v/v) formalin solution at room temperature for overnight. The TTC stained brain slices were photographed using a digital camera (5000D, Nikon, Japan). The size of infarct was calculated with an image analysis system (Image-Pro Plus 4.0, Media Cybernetics, USA) and measurement of infarct area were expressed as the percentage (% control) of infarct area in reference to the compared with ipsilateral hemisphere of control group (see FIGS. 2 and 3).\nStatistical analysis results are presented as the mean±S.E.M. and measures analysis of variance was used for comparison of the results of hemispheric infarct area, obtained from 5˜33 rats in each group. Data were analyzed by either one-way analysis of variance (ANOVA) followed by Tukey's test for multiple comparisons. p values less than 0.05 were considered to be statistically significant (see FIGS. 1 and 4)."}}}
{"smiles": "CCCC[C@H](OC(N)=O)[C@@H](O)c1c(Cl)cccc1Cl", "note": "[Compound 44, 1-(2,6-dichlorophenyl)-(S)-1-hydroxyhexyl-(S)-2-carbamate]", "values": [{"measurement": "responders at 100 mg/kg", "setting": "mice", "value": 75, "unit": "%"}]}
{"smiles": "CCCC[C@H](OC(N)=O)[C@@H](O)c1ccccc1Cl", "note": "[Compound 12, 1-(2-chlorophenyl)-(S)-1-hydroxyhexyl-(S)-2-carbamate]", "values": [{"measurement": "responders at 100 mg/kg", "setting": "mice", "value": 75, "unit": "%"}]}
{"smiles": "CC[C@H](OC(N)=O)[C@@H](O)c1ccccc1I", "note": "[Compound 67, 1-(2-iodophenyl)-(S)-1-hydroxybutyl-(S)-2-carbamate]", "values": [{"measurement": "responders at 100 mg/kg", "setting": "mice", "value": 100, "unit": "%"}, {"measurement": "infraction areas compared with control (neuro-therapeutic)", "setting": "SD rats [1]", "value": "neuro-therapeutic effects"}, {"measurement": "infraction areas compared with control (neuro-therapeutic)", "setting": "SD rats [2]", "value": "significantly reduced"}, {"measurement": "infraction areas compared with control (neuro-prevention)", "setting": "SD rats [2]", "value": "significantly reduced"}]}
{"smiles": "C[C@H](OC(N)=O)[C@@H](O)c1ccccc1I", "note": "[Compound 65, 1-(2-iodophenyl)-(S)-1-hydroxypropyl-(S)-2-carbamate]", "values": [{"measurement": "responders at 50 mg/kg", "setting": "mice; injection amount 50 mg/kg", "value": 100, "unit": "%"}, {"measurement": "infraction areas compared with control (neuro-therapeutic)", "setting": "SD rats [1]", "value": "neuro-therapeutic effects"}, {"measurement": "infraction areas compared with control (neuro-therapeutic)", "setting": "SD rats [2]", "value": "significantly reduced"}, {"measurement": "infraction areas compared with control (neuro-prevention)", "setting": "SD rats [2]", "value": "significantly reduced"}]}
{"smiles": "C[C@H](OC(N)=O)[C@@H](O)c1ccccc1Cl", "note": "[Compound 1, 1-(2-chlorophenyl)-(S)-1-hydroxypropyl-(S)-2-carbamate]", "values": [{"measurement": "infraction areas compared with control (neuro-therapeutic)", "setting": "SD rats [1]", "value": "significantly reduced"}, {"measurement": "neuro-therapeutic effect, TTC-stained infarction area", "setting": "SD rats [1]; 1st inj. 1 hr after occlusion, occlusion for 3 days", "value": "neuro-therapeutic effect"}, {"measurement": "infraction areas compared with control (neuro-therapeutic)", "setting": "SD rats [2]", "value": "significantly reduced"}, {"measurement": "infraction areas compared with control (neuro-prevention)", "setting": "SD rats [2]", "value": "significantly reduced"}]}
{"smiles": "CCCC[C@@H](OC(N)=O)[C@H](O)c1ccccc1Cl", "note": "[Compound 13, 1-(2-chlorophenyl)-(R)-1-hydroxyhexyl-(R)-2-carbamate]", "values": [{"measurement": "responders at 200 mg/kg", "setting": "mice; injection amount 200 mg/kg", "value": 75, "unit": "%"}]}
{"smiles": "CCCC[C@H](OC(N)=O)[C@@H](O)c1ccc(Cl)cc1Cl", "note": "[Compound 43, 1-(2,4-dichlorophenyl)-(S)-1-hydroxyhexyl-(S)-2-carbamate]", "values": [{"measurement": "responders at 100 mg/kg", "setting": "mice", "value": 25, "unit": "%"}]}
